# Earlier results in patent US20030077302A1, “Diclofenamide suspension gel” (priority 2000, published 2003).
# How the values were obtained:
# intraocular pressure = conditions: rabbits
# [1] = rabbits, topical suspensions
Structure (SMILES),reduction of the intraocular pressure (intraocular pressure; topical aqueous solution),reduction of the intraocular pressure compared with suspensions of the free acid of diclofenamide (intraocular pressure; topical solutions),"tolerability, single applications (rabbit, in vivo)","side effects, repeated use (rabbits, solutions, repeated use)",aqueous humor values compared with solutions of sodium diclofenamide [1]
NS(=O)(=O)c1cc(Cl)c(Cl)c(S(N)(=O)=O)c1 [diclofenamide sodium],clear and long lasting reduction of the intraocular pressure,clearly stronger and longer reduction of the intraocular pressure,well tolerated,severe undesirable side effects,
"NS(=O)(=O)c1cc(Cl)c(Cl)c(S(N)(=O)=O)c1 [diclofenamide, 4,5-dichlorbenzene-1,3-disulfonamide]",,,,,clearly at a lower level
